The record followed here is patent publication US7569562B2, “N-substituted heterocyclic sulfonamides” (Elan Pharmaceuticals, Inc., priority 2005, dated 2009).

Each structure is given as a SMILES string. pIC50: −log10 of the molar value. Bounds are passed on as bounds.

The assay concerns gamma secretase cleavage of NotchΔE (ZEDN1). The experiment in a line: Notch Signaling Assay for Selective Inhibitors of Gamma Secretase (reporter gene based). In kind it is cell-based. As to conditions: Rattus norvegicus; assay not given; it follows the Notch signaling (4xwtCBF1 Luciferase reporter) method. An excerpt:
Notch Signaling Assay for Selective Inhibitors of Gamma Secretase.
Due to the importance of Notch signaling in cell fate determination, and tissue differentiation during both development and in the adult, inhibition of Notch signaling by gamma secretase inhibitors is postulated to be a limiting factor in their therapeutic utility. In order to identify selective gamma secretase inhibitors, we have employed a reporter gene based Notch signaling assay using a constitutively active rat Notch1 construct (ZEDN1) provided by Dr Gerry Weinmaster, who is at the University of California at Los Angeles (UCLA) as described in Shawber, C., D. Nofziger, J. J. Hsieh, C. Lindsell, O. Bogler, D. Hayward and G. Weinmaster (1996). “Notch signaling inhibits muscle cell differentiation through a CBF1-independent pathway.” Development 122(12): 3765-73 in combination with the CBF1 repressible Luciferase reporter gene 4xwtCBF1Luc (Hsieh, J. J., T. Henkel, P. Salmon, E. Robey, M. G. Peterson and S. D. Hayward (1996). “Truncated mammalian Notch1 activates CBF1/RBPJk-repressed genes by a mechanism resembling that of Epstein-Barr virus EBNA2.” Mol Cell Biol 16(3): 952-9).
When 4xwtCBF1 Luciferase is co-transfected with NotchΔE (ZEDN1), γ-secretase cleavage of NotchΔE releases the Notch intracellular domain (NICD), which translocates to the nucleus and de-represses CBF1 mediated transcriptional repression, leading to transcription of the Luciferase reporter gene. Luciferase activity is easily assayed in cell extracts using commercially available kits. The activity of the reporter gene is directly correlated with gamma secretase cleavage of NotchΔE, and as such, a reduction in Luciferase activity provides a convenient measure of inhibition of gamma secretase cleavage of NotchΔE. A comparison of the IC50 values of compounds for inhibition of Notch signaling versus inhibition of β-amyloid production in 293sw cells is employed to guide in the selection of compounds that have the desired property of potent inhibition of β-amyloid synthesis with minimal inhibition of Notch Signaling.
In the case of `Cn1nnc2cc(CN([C@@H]3CCCCNC3=O)S(=O)(=O)c3ccc(Cl)s3)ccc21` [5-Chloro-thiophene-2-sulfonic acid (1-methyl-1H-benzotriazol-5-ylmethyl)-[(R)-2-oxo-azepan-3-yl]-amide], the pIC50 (as a rule, −log10 of the IC50, conventionally taken in molar units) is 6.00 to 7.00. In the case of `O=C1NCCCC[C@H]1N(Cc1ccc(Br)cc1)S(=O)(=O)c1ccc(Cl)s1` [5-Chloro-thiophene-2-sulfonic acid (4-bromo-benzyl)-[(R)-2-oxo-azepan-3-yl]-amide] it was 6.00 to 7.00; in that of `Cc1ccc(S(=O)(=O)N(Cc2ccc(Br)cc2)[C@@H]2CCCCNC2=O)s1` [5-Methyl-thiophene-2-sulfonic acid (4-bromo-benzyl)-[(R)-2-oxo-azepan-3-yl]-amide], less than 6.00; in that of `Cn1nnc2cc(CN([C@@H]3CCCCNC3=O)S(=O)(=O)c3ccc(Cl)nc3)ccc21` [6-Chloro-pyridine-3-sulfonic acid (1-methyl-1H-benzotriazol-5-ylmethyl)-[(R)-2-oxo-azepan-3-yl]-amide], 7.00 to 9.00. `CC(=Cc1ccccc1)CN([C@@H]1CCCCNC1=O)S(=O)(=O)c1ccc(Cl)nc1` [6-Chloro-pyridine-3-sulfonic acid (2-methyl-3-phenyl-allyl)-[(R)-2-oxo-azepan-3-yl]-amide]: the pIC50 is 7.00 to 9.00. In the case of `O=C1NCCCC[C@H]1N(CC=Cc1cccnc1)S(=O)(=O)c1ccc(Cl)nc1` [6-Chloro-pyridine-3-sulfonic acid [(R)-2-oxo-azepan-3-yl]-(3-pyridin-3-yl-allyl)-amide], the pIC50 is 7.00 to 9.00. Regarding `O=C1NCCCC[C@H]1N(CC1CCCCO1)S(=O)(=O)c1ccc(Cl)nc1` (stereo partly drawn) [6-Chloro-pyridine-3-sulfonic acid [(R)-2-oxo-azepan-3-yl]-(tetrahydro-pyran-2-ylmethyl)-amide], the negative-log IC50 (pIC50) was less than 6.00.

As to `O=C1NCCCC[C@H]1N(Cc1ccc(Br)cc1)S(=O)(=O)c1cccnc1` [Pyridine-3-sulfonic acid (4-bromo-benzyl)-[(R)-2-oxo-azepan-3-yl]-amide], the negative logarithm of the IC50 (pIC50) was 6.00 to 7.00.
